From ChEMBL document CHEMBL1201862, “PubChem BioAssay data set” (2004)
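In this assay, cells in 96-well plates receive the compound at five concentrations for 48 hours. Endpoints are linearly interpolated between the surrounding concentrations. GI50 = concentration required for 50% inhibition of growth.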 Activity calls are given as the source filed them. No stated cut-off is given here; in the data, active = GI50 up to about 1.1 µM and inactive = higher.

Legend:
Assay in all cases: growth of human tumour cells (NCI), 48 h
[1] = tested on: 786-0
[2] = tested on: A498
[3] = tested on: A549
[4] = tested on: ACHN
[5] = tested on: CAKI-1
[6] = tested on: CCRF-CEM
[7] = tested on: COLO 205
[8] = tested on: DLD-1
[9] = tested on: DMS-114
[10] = tested on: DMS-273
[11] = tested on: EKVX
[12] = tested on: HCC 2998
[13] = tested on: HCT-116
[14] = tested on: HOP-18
[15] = tested on: HOP-62
[16] = tested on: HOP-92
[17] = tested on: HT-29
[18] = tested on: IGROV-1
[19] = tested on: K562
[20] = tested on: KM12
[21] = tested on: LOX IMVI
[22] = tested on: LXFL 529
[23] = tested on: M14
[24] = tested on: M19-MEL
[25] = tested on: MOLT-4
[26] = tested on: Malme-3M
[27] = tested on: NCI-H226
[28] = tested on: NCI-H23
[29] = tested on: NCI-H460
[30] = tested on: NCI-H522
[31] = tested on: OVCAR-3
[32] = tested on: OVCAR-4
[33] = tested on: OVCAR-8
[34] = tested on: RPMI-8226
[35] = tested on: RXF 393
[36] = tested on: SF-268
[37] = tested on: SF-295
[38] = tested on: SF-539
[39] = tested on: SK-MEL-28
[40] = tested on: SK-MEL-2
[41] = tested on: SK-MEL-5
[42] = tested on: SK-OV-3
[43] = tested on: SN12C
[44] = tested on: SNB-19
[45] = tested on: SNB-75
[46] = tested on: SNB-78
[47] = tested on: SR
[48] = tested on: SW-620
[49] = tested on: TK-10
[50] = tested on: U-251
[51] = tested on: UACC-257
[52] = tested on: UACC-62
[53] = tested on: UO-31
[54] = tested on: XF498
[55] = tested on: HCT-15
[56] = tested on: HL-60
[57] = tested on: MCF7
[58] = tested on: NCI/ADR-RES
[59] = tested on: OVCAR-5

O=C(c1ccccc1)c1cccc(C(=O)c2ccccc2)c1
GI50 [1]: > 100 µM (inactive)
GI50 [2]: > 100 µM (inactive)
GI50 [3]: > 100 µM (inactive)
GI50 [4]: > 100 µM (inactive)
GI50 [5]: > 100 µM (inactive)
GI50 [6]: 63.8 µM (inactive)
GI50 [7]: > 100 µM (inactive)
GI50 [8]: > 100 µM (inactive)
GI50 [9]: 43.4 µM (inactive)
GI50 [10]: > 100 µM (inactive)
GI50 [11]: > 100 µM (inactive)
GI50 [12]: > 100 µM (inactive)
GI50 [13]: > 100 µM (inactive)
GI50 [14]: > 100 µM (inactive)
GI50 [15]: > 100 µM (inactive)
GI50 [16]: 53 µM (inactive)
GI50 [17]: > 100 µM (inactive)
GI50 [18]: > 100 µM (inactive)
GI50 [19]: > 100 µM (inactive)
GI50 [20]: 44.1 µM (inactive)
GI50 [21]: 33 µM (inactive)
GI50 [22]: 74.1 µM (inactive)
GI50 [23]: > 100 µM (inactive)
GI50 [24]: > 100 µM (inactive)
GI50 [25]: 67.9 µM (inactive)
GI50 [26]: 78.2 µM (inactive)
GI50 [27]: 34.3 µM (inactive)
GI50 [28]: 98.2 µM (inactive)
GI50 [29]: > 100 µM (inactive)
GI50 [30]: > 100 µM (inactive)
GI50 [31]: > 100 µM (inactive)
GI50 [32]: > 100 µM (inactive)
GI50 [33]: > 100 µM (inactive)
GI50 [34]: > 100 µM (inactive)
GI50 [35]: 76.4 µM (inactive)
GI50 [36]: > 100 µM (inactive)
GI50 [37]: > 100 µM (inactive)
GI50 [38]: > 100 µM (inactive)
GI50 [39]: > 100 µM (inactive)
GI50 [40]: > 100 µM (inactive)
GI50 [41]: 78.9 µM (inactive)
GI50 [42]: > 100 µM (inactive)
GI50 [43]: > 100 µM (inactive)
GI50 [44]: > 100 µM (inactive)
GI50 [45]: 82 µM (inactive)
GI50 [46]: > 100 µM (inactive)
GI50 [47]: 97.9 µM (inactive)
GI50 [48]: > 100 µM (inactive)
GI50 [49]: > 100 µM (inactive)
GI50 [50]: > 100 µM (inactive)
GI50 [51]: > 100 µM (inactive)
GI50 [52]: > 100 µM (inactive)
GI50 [53]: 37.2 µM (inactive)
GI50 [54]: > 100 µM (inactive)

O=C(NCCCl)O/N=C/c1cccnc1
GI50 [2]: > 100 µM (inactive)
GI50 [3]: > 100 µM (inactive)
GI50 [5]: > 100 µM (inactive)
GI50 [6]: > 100 µM (inactive)
GI50 [7]: > 100 µM (inactive)
GI50 [8]: > 100 µM (inactive)
GI50 [9]: > 100 µM (inactive)
GI50 [10]: > 100 µM (inactive)
GI50 [11]: > 100 µM (inactive)
GI50 [12]: > 100 µM (inactive)
GI50 [13]: > 100 µM (inactive)
GI50 [55]: > 100 µM
GI50 [56]: > 100 µM (inactive)
GI50 [14]: > 100 µM (inactive)
GI50 [15]: > 100 µM (inactive)
GI50 [16]: > 100 µM (inactive)
GI50 [17]: > 100 µM (inactive)
GI50 [18]: > 100 µM (inactive)
GI50 [19]: > 100 µM (inactive)
GI50 [20]: > 100 µM (inactive)
GI50 [21]: > 100 µM (inactive)
GI50 [24]: > 100 µM (inactive)
GI50 [57]: > 100 µM (inactive)
GI50 [25]: > 100 µM (inactive)
GI50 [27]: > 100 µM (inactive)
GI50 [28]: > 100 µM (inactive)
GI50 [29]: > 100 µM (inactive)
GI50 [30]: > 100 µM (inactive)
GI50 [58]: > 100 µM (inactive)
GI50 [31]: > 100 µM (inactive)
GI50 [32]: > 100 µM (inactive)
GI50 [59]: > 100 µM (inactive)
GI50 [33]: > 100 µM (inactive)
GI50 [34]: > 100 µM (inactive)
GI50 [36]: > 100 µM (inactive)
GI50 [37]: > 100 µM (inactive)
GI50 [38]: > 100 µM (inactive)
GI50 [39]: > 100 µM (inactive)
GI50 [40]: > 100 µM (inactive)
GI50 [41]: > 100 µM (inactive)
GI50 [42]: > 100 µM (inactive)
GI50 [43]: > 100 µM (inactive)
GI50 [44]: > 100 µM (inactive)
GI50 [45]: 61 µM (inactive)
GI50 [48]: > 100 µM (inactive)
GI50 [50]: > 100 µM (inactive)
GI50 [51]: > 100 µM (inactive)
GI50 [52]: > 100 µM (inactive)
GI50 [53]: > 100 µM (inactive)
GI50 [54]: > 100 µM (inactive)
